Measurements taken from ChEMBL document CHEMBL3988442, “University of Dundee, Small-Polar-MMV Screening Library” (2021).

Molecular target: ClpP1P2 (Mycobacterium tuberculosis (strain ATCC 25618 / H37Rv), UniProt P9WPC3+P9WPC5)
Experiment: in vitro assay to detect presence of AMC directly proportional to the activity of ClpP1P2. GHDDI collaboration.
Format: functional

Row | SMILES | IC50 [µM]
1 | CCn1cc(-c2cc(-c3cc(CC(=O)O)cs3)nc(N)c2C#N)c(C)n1 | > 100
2 | CC(C)SCCNC(=O)c1cccc2ccnn12 | > 100
3 | COc1ccc(C2Nc3cc(Cl)ccc3C3=NCCN32)cc1CO (configuration not stated) | > 100
4 | CN(C)Cc1cc(C2CCCCN2S(=O)(=O)Cc2ccccc2)nn1C (configuration not stated) | > 100
5 | Cc1nc2oc(C(=O)N3CCOCC3)c(N)c2c2c1CCCC2 | > 100
6 | O=C(c1cc(-c2ccco2)nc2c(Cl)cccc12)N1CC[C@H]2CNC[C@H]21 | > 100
7 | Cc1nc(N2C[C@H]3CC[C@@H](C2)N3)nc2cc(S(C)(=O)=O)ccc12 | > 100
8 | Cc1nn(C)c(C)c1C(=O)NCc1cc(N(C)C)nc2ccccc12 | > 100
9 | Fc1ccccc1-c1cc(N2[C@@H]3CC[C@H]2CNC3)n2nccc2n1 | > 100
10 | CCOCCCNCc1cc2c(C)cc(C)cc2n2c(=O)n(C)nc12 | > 100
11 | Cc1cc(C)n(CC2CCCN2CCCS(N)(=O)=O)n1 (configuration not stated) | > 100
12 | COCc1ccccc1CNC(=O)CNc1ccccc1C(C)=O | > 100
13 | COc1cc2nc(NCCNS(C)(=O)=O)cc(C)c2cc1OC | > 100
14 | CC(=O)N1CCC(c2cc(C(F)(F)F)n3ccnc3n2)CC1 | > 100
15 | CCCn1cc(-c2cc(-c3cc(CC)n[nH]3)c(C#N)c(N)n2)c(C)n1 | > 100
16 | CC(c1ccncn1)N(C)Cc1cc2cc3c(cc2[nH]c1=O)OCO3 (configuration not stated) | > 100
17 | COc1cc2c(cc1-c1nc3c(cnn3C(C)C)[nH]1)OCO2 | > 100
18 | CC1CN(CC(=O)NCc2ccccn2)CCN1Cc1nccn1C (configuration not stated) | > 100
19 | Cc1nn2c(N3CCCC(C(N)=O)C3)cc(-c3ccccc3)nc2c1C (configuration not stated) | > 100
20 | COCCn1cnc(-c2nc(C(=O)N3CCOCC3)c3ccccn23)c1 | > 100
21 | Cc1nc(NC(=O)CN2C(=O)c3ccccc3NC2C(C)C)sc1C (configuration not stated) | > 100
22 | CN(CCN1CCCCC1=O)Cc1cc2cc3c(cc2[nH]c1=O)OCO3 | > 100
23 | CCc1ncc2c(n1)CN(CC(=O)Nc1cccnc1)CC2 | > 100
24 | Cc1cccc2c1C(=O)NC1(CCOCC1)N2 | > 100
25 | CCSc1ncc(-c2cc(C3CC3)nc(N)c2C#N)cn1 | > 100

Row | SMILES | IC50 [µM]
26 | CN(Cc1ccccc1C#N)C1CCN(CCc2ccccn2)CC1 | > 100
27 | Nc1nccnc1C(=O)NCCCNc1ccc(C(F)(F)F)cn1 | > 100
28 | COC(=O)N1CCC(Nc2ccc(Cl)c(C#N)n2)CC1 | > 100
29 | CN(C)c1ncc(C2Nc3cc(Cl)ccc3C3=NCCCN32)cn1 (configuration not stated) | > 100
30 | Cc1cn2c(=O)c(-c3ccnc(N[C@@H](C)CO)n3)cnc2s1 | > 100
31 | CNC(=O)CNC(=O)c1ccc(-c2scnc2C)nc1 | > 100
32 | N#Cc1ccc(F)c(CN2CCNC(=O)C2c2cccs2)c1 (configuration not stated) | > 100
33 | c1ccc2nc(N3CCOC(Cn4cccn4)C3)cnc2c1 (configuration not stated) | > 100
34 | CCN1CCCC1CNCc1cc2cc(OC)ccc2[nH]c1=O (configuration not stated) | > 100
35 | Cn1c(N)c2c(=O)n(C)c(-c3ccc(Cl)cc3Cl)cc2c(C#N)c1=O | > 100
36 | Cc1csc2ncc(-c3ccnc(N4CCN(C)CC4)n3)c(=O)n12 | > 100
37 | Cc1ncsc1CCC(=O)NC1CCN(c2ncccc2C#N)CC1 | > 100
38 | Cc1cnn(CCNCc2csc(-c3ccsc3)n2)c1 | > 100
39 | c1cnc2nc(N3CCCC3c3nnc4n3CCCCC4)ccc2n1 (configuration not stated) | > 100
40 | CCOC1CCN(C(=O)NCCc2ccn(-c3ccccc3)n2)CC1 | > 100
41 | Cc1nc(CN2CCN(C(=O)c3sccc3C)CC2)cs1 | > 100
42 | Cc1cccc2c1NC1(CCOCC1)NC2=O | > 100
43 | c1cnc(Nc2cncc(C3CCCN3)n2)cn1 (configuration not stated) | > 100
44 | CC(Cn1cccn1)NC(=O)Cc1csc(C(C)C)n1 (configuration not stated) | > 100
45 | CSc1ccc(CNc2n[nH]c(C)n2)cc1 | > 100
46 | O=C1NC2(CCN(CC(=O)N3CCOCC3)CC2)Nc2ccc(Br)cc21 | > 100
47 | Cc1nn(C)c(C)c1C1CCCN1C(=O)c1nccnc1N (configuration not stated) | > 100
48 | O=C1C[C@H]2CC[C@@H](CN1)N2c1cc(-c2ccccc2F)nc2ccnn12 | > 100
49 | CC(C)c1nnc(NC(=O)CN2C(=O)c3ccccc3NC2C(C)C)s1 (configuration not stated) | > 100
50 | O=C(c1cc(-c2ccco2)nc2c(Cl)cccc12)N1CCS(=O)(=O)CC1 | > 100

Row | SMILES | IC50 [µM]
51 | Cc1cc(NCC(=O)N(C)Cc2cccs2)c(C(N)=O)cc1F | > 100
52 | Cn1cc(-c2ncc3c(c2C(=O)O)CCN(Cc2ccccn2)C3)cn1 | > 100
53 | CCN(CC)c1ccc(NS(=O)(=O)c2cnn(CC)c2)cn1 | > 100
54 | O=C1CN(Cc2ccc3ccccc3n2)CCN1C1CCCC1 | > 100
55 | Cc1c[nH]nc1C1CCCN1Cc1nccn1C (configuration not stated) | > 100
56 | COc1ccc(-c2nc(CN3CCc4cncnc4C3)no2)cc1 | > 100
57 | Cc1ccc(NC2CCN(C(=O)c3ccoc3C)CC2)nn1 | > 100
58 | CN1CCc2c(C#N)c(NCc3ccncc3)n3cnnc3c2C1 | > 100
59 | N#Cc1ccnc(NCc2cc3n(n2)CCCN(C(=O)C2CCC2)C3)c1 | > 100
60 | CN(C)c1cncc(-c2ccnc3c2ccn3C)n1 | > 100
61 | Cc1ccc(-c2cc(-c3c(C)nn(CCO)c3C)c(C#N)c(N)n2)cc1 | > 100
62 | CNC(=O)c1cc2c(nc1NCC(C)C)CCN(C)CC2 | > 100
63 | COCc1nnc(NC(=O)CN2C(=O)c3ccccc3NC2C(C)C)s1 (configuration not stated) | > 100
64 | CCc1nc(CN2CCCC(NCc3nc(C)c(C)o3)C2)no1 (configuration not stated) | > 100
65 | Cn1cnc2c1CCN(Cc1csc(-c3ccsc3)n1)C2 | > 100
66 | CC(C)c1nn(C)c(N(C)C)c1CNCC(O)c1cccc(F)c1 (configuration not stated) | > 100
67 | O=C(Nc1cc(CCC2CCN(CCO)CC2)ccn1)c1ccccn1 | > 100
68 | CN(Cc1nnc(-c2ccco2)o1)C1CCCN(c2cccnn2)C1 (configuration not stated) | > 100
69 | O[C@@H]1C[C@H]2CN(Cc3ccccc3Cl)[C@H](Cc3ccccc3)CN2C1 | > 100
70 | O=C(NCCCn1cccn1)NCC(c1ccco1)N1CCCC1 (configuration not stated) | > 100
71 | CC/N=c1\nc(NCC)nc2n1C(O)(Nc1cc(Cl)ccc1Cl)CS2 (configuration not stated) | > 100
72 | Cc1ccc(CN(CC(=O)N2CCOC(C)C2)C2CC2)cc1 (configuration not stated) | > 100
73 | Cc1nc(C(=O)N2CCC(c3cc(CCO)n(C)n3)C2)co1 (configuration not stated) | > 100
74 | COc1ccc2c(c1)C(=O)N(C)C1(CCN(CC=C(C)C)CC1)N2 | > 100
75 | CCOC(=O)Cn1nnnc1-c1ccccc1 | > 100

Row | SMILES | IC50 [µM]
76 | N#Cc1cc2c(=O)n(CC(O)Cc3ccccc3)ccc2[nH]c1=O (configuration not stated) | > 100
77 | O=C(CCc1ccc(-c2ccccc2)[nH]1)N1CCCC(n2ccnc2)C1 (configuration not stated) | > 100
78 | CC(Cn1cccn1)NC(=O)NCc1ccoc1 (configuration not stated) | > 100
79 | CCCNC(=O)c1ccc(-c2ccco2)[nH]c1=O | > 100
80 | Cc1cc2nc(-c3ccccc3)cc(NCC3CCS(=O)(=O)C3)n2n1 (configuration not stated) | > 100
81 | CCc1nnc2n1CCN(C(=O)c1ccc(-c3ccco3)[nH]c1=O)C2 | > 100
82 | Cc1cccc2c1OCCC2NCc1c(C)nn(C)c1N(C)C (configuration not stated) | > 100
83 | CC(C)c1nn(C)c(Cl)c1CNCC(=O)N1CCN(C)CC1 | > 100
84 | CCc1ncc2c(n1)CN(Cc1nnc(Cc3ccccc3)o1)CC2 | > 100
85 | CCN(CC)S(=O)(=O)c1cc2c3c(c1)c(C)cc(=O)n3CC2 | > 100
86 | N#Cc1cccnc1N1CCC(C2CCCCCN2C(N)=O)CC1 (configuration not stated) | > 100
87 | NC(=O)CCC1CCCN(c2ccc3ccc(F)cc3n2)C1 (configuration not stated) | > 100
88 | CC(c1ccccn1)N(C)Cc1cc2cc3c(cc2[nH]c1=O)OCO3 (configuration not stated) | > 100
89 | N#Cc1ccccc1N1CCCN(C(=O)CCc2ccsc2)CC1 | > 100
90 | Cc1n[nH]c(C)c1-c1cc(-c2ccc[nH]2)nc(N)c1C#N | > 100
91 | COc1ccc(C2Nc3ccccc3C3=NCCCN32)cc1OC (configuration not stated) | > 100
92 | CNC(=O)c1cc2c(nc1NCC(C)C)CCN(S(=O)(=O)C1CC1)CC2 | > 100
93 | COc1ncc(NCc2ccc(F)cc2)cc1C(N)=O | > 100
94 | CN(C)c1nc2c(c(NCc3nnc4n3CCCCC4)n1)CCNC2 | > 100
95 | Cc1cc(C)n(CC2CN(c3cnc4ccccc4n3)CCO2)n1 (configuration not stated) | > 100
96 | COC(=O)[C@@H]1C[C@H](NC(=O)c2cc(=O)[nH]c3ccc(C)cc23)CN1C | > 100
97 | O=C(CN1CCC2(CC1)NC(=O)c1cc(Br)ccc1N2)NC1CC1 | > 100
98 | N#Cc1cccnc1N1CCC(OCc2ccccc2)CC1 | > 100
99 | O=C(c1c2c(N3CCOCC3)ncnc2n2ccccc12)N1CCCC1 | > 100
100 | Cc1ccc(C(=O)NC2CCN(C(=O)NCc3ccccn3)CC2)o1 | > 100

Row | SMILES | IC50 [µM]
101 | CNCCN1C(=O)CC[C@H]2CN(c3cnc4ccccc4n3)CC[C@H]21 | > 100
102 | Cc1ccccc1OCCN1CCn2c(C)nnc2C1 | > 100
103 | Cn1cnc(-c2nc(C(=O)NCC3CCCO3)c3ccccn23)c1 (configuration not stated) | > 100
104 | O=C(c1cc(-c2cccnc2)[nH]n1)N1CCCC(c2cnccn2)C1 (configuration not stated) | > 100
105 | CCn1c(C)nnc1CN(C)C1CCN(CCS(=O)(=O)CC)C1 (configuration not stated) | > 100
106 | CNc1cnc(CC2COCCN(Cc3ccccc3)C2)cn1 (configuration not stated) | > 100
107 | Cc1cc(CN2CCN(C(=O)c3sccc3C3CC3)CC2)no1 | > 100
108 | NC(=O)CN1CCC(c2cc(C(F)(F)F)n3ccnc3n2)CC1 | > 100
109 | O=C(Cn1cccc2cc(-c3ccc(F)cc3)nc1-2)N1CCC(O)CC1 | > 100
110 | COc1ccc2[nH]c(=O)c(CN(C)CCN3CCCC3)cc2c1 | > 100
111 | CCN(CC1CCOC1)C(=O)c1cnc2onc(C)c2c1 (configuration not stated) | > 100
112 | CC(C)c1ncc2c(n1)CN(CC(=O)Nc1ccc(Cl)cn1)CC2 | > 100
113 | c1cc2nc(C3CCNCC3)nn2cc1NC1CCC1 | > 100
114 | COc1ccc(-c2ccnc3nc(N4CCCC4)[nH]c(=O)c23)cc1OC | > 100
115 | Nc1nccc(-c2cccc3ccnn23)n1 | > 100
116 | O=C1CC(Nc2ccc3nccnc3n2)CN1c1ccccc1 (configuration not stated) | > 100
117 | O=C(NCCCO)c1cc(-c2cc[nH]n2)n2ccccc12 | > 100
118 | c1cc(-c2nc(CN3CCc4c(ncn4C4CC4)C3)cs2)cs1 | > 100
119 | CCCn1[nH]cc/c1=N\C(=O)CN1CCc2cnc(C(C)C)nc2C1 | > 100
120 | Cn1cnc2ccc(NC(=O)CC3CCN(S(C)(=O)=O)CC3)cc21 | > 100
121 | c1ccc(O[C@H]2C[C@@H]3CN(Cc4cnccn4)C[C@@H]3C2)cc1 | > 100
122 | OCCNc1nc(NCCc2ccccc2)nc2nccnc12 | > 100
